PubChem BioAssay (NCI)
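Protocol summary: plate cells (96-well), add compound at 5 concentrations, incubate 48 h, interpolate endpoints linearly. GI50 = concentration required for 50% inhibition of growth. TGI: total growth inhibition.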

What follows are compounds tested on HOP-92 NSCLC (assay: inhibition of tumour cell growth, NCI panel, 48 h).
For O=C(Nc1cc(C(F)(F)F)ccc1Cl)c1cccc(NC2=C(Cl)C(=O)N(Cc3ccccc3)C2=O)c1, the GI50 was 19.1 µM and the TGI was > 100 µM. With CCOC(=O)/C=C/c1ccc(C#Cc2ccccc2)cc1 the GI50 was > 100 µM and the TGI was > 100 µM. COc1ccc(C(O)(CCC(C)C)C(CN2CCOCC2)c2ccc(Cl)cc2)cc1 (stereo not given) was tested, and the GI50 was 8 µM and the TGI was 21.7 µM. COc1ccc(/C(=C\C=C(C#N)C#N)Sc2nc3ccccc3s2)cc1 showed a GI50 of 0.717 µM and a TGI of 4.14 µM. COc1cc(/C=C\c2cc(OC)c(OC)c(OC)c2)cc(N/C=C\C(=O)c2cc(OC)c(OC)c(OC)c2)c1OC was tested, and the GI50 was 1.14 µM and the TGI was 6.56 µM. For Cc1cc2cc3c(=O)[nH]c(=O)[nH]c3nc2cc1C, the TGI was > 100 µM. With CN(C)c1ncnc2c1ncn2CCn1cnc2c(N(C)C)ncnc21 the TGI was > 100 µM. With O=C(O)c1ccc(C(=O)O)c2c(C(=O)O)ccc(C(=O)O)c12 the TGI was > 100 µM. With S=c1[nH]c2c(Cl)c(Cl)c(Cl)c(Cl)c2[nH]1 the TGI was 53.6 µM. In the case of Cc1ccc(Nc2oc(-c3ccccc3)nc2[P+](c2ccccc2)(c2ccccc2)c2ccccc2)cc1, the GI50 is reported as 0.209 µM and the TGI is reported as 1.02 µM. For O=C(Nc1ccc(Cl)c(C(F)(F)F)c1)c1ccc(NC2=C(Cl)C(=O)N(Cc3ccccc3)C2=O)cc1, the GI50 was 4.34 µM and the TGI was 14.7 µM. COC(=O)c1ccc(-c2c(C#N)[n+](=O)c3cc(Cl)c(Cl)cc3n2[O-])cc1 gave a GI50 of 11.1 µM and a TGI of 34.9 µM. Work on C#Cc1nc(Nc2cc(C)[nH]n2)c2ccccc2n1 yielded a GI50 of 0.293 µM and a TGI of 1.25 µM. With Oc1ccc2ccccc2c1N=Nc1ccc(Br)cc1 the TGI was > 100 µM. For CC(C)=CCc1cc2c(cc1O)OC[C@H]1c3cc4c(cc3O[C@@H]21)OCO4, the TGI was > 100 µM. Work on Cn1cc(-c2csc(-c3c[nH]c4ccc(Br)cc34)n2)c2cnccc21 yielded a GI50 of 2.98 µM and a TGI of 8.37 µM. In the case of COc1ccc(Cn2c(N)c(S(=O)(=O)c3ccc(Cl)cc3)c3nc(C#N)c(C#N)nc32)cc1, the GI50 is reported as 11.1 µM and the TGI is reported as > 50 µM.

Each compound was assayed on MDA-MB-435 (assay: inhibition of tumour cell growth, NCI panel, 48 h).
Work on O=[N+]([O-])c1ccc(CI)cc1 yielded a GI50 of 2.89 µM and a TGI of 9.62 µM. Compound COC(=O)c1cc2c(s1)-c1nccc3c1c(nc1ccccc13)C2=O has a GI50 of 17.7 µM and a TGI of 32 µM. COc1ccc(-c2cc(/C=C/C(=O)c3ccc(OC)c(OC)c3)[nH]n2)cc1 showed a GI50 of 1.84 µM and a TGI of 3.88 µM. Work on Oc1ccc(Nc2c3ccccc3nc3occ(Cl)c23)cc1 yielded a GI50 of 1.53 µM and a TGI of 6.51 µM. With O=C(Nc1cc(C(F)(F)F)ccc1Cl)c1cccc(NC2=C(Cl)C(=O)N(Cc3ccccc3)C2=O)c1 the GI50 was 15.7 µM and the TGI was > 100 µM. With CCOC(=O)/C=C/c1ccc(C#Cc2ccccc2)cc1 the GI50 was > 100 µM and the TGI was > 100 µM. In the case of O=[P@@]1(c2ccccc2)O[C@H](COCc2ccccc2)[C@@H](OCc2ccccc2)[C@H](OCc2ccccc2)[C@H]1NCc1ccccc1, the GI50 is reported as 2.92 µM and the TGI is reported as > 100 µM. CSc1ccccc1C#C/C=C\C#Cc1ccccc1N was tested, and the GI50 was 0.982 µM and the TGI was 2.49 µM. For COc1ccc(C(O)(CCC(C)C)C(CN2CCOCC2)c2ccc(Cl)cc2)cc1 (stereo not given), the GI50 was 14.9 µM and the TGI was 37.3 µM. In the case of O=C1c2cc3c(cc2-c2c1c1cc(Cl)c(Cl)cc1c(=O)n2C[C@H](O)CO)OCO3, the GI50 is reported as 0.0111 µM and the TGI is reported as 0.168 µM. Work on COc1ccc(/C(=C\C=C(C#N)C#N)Sc2nc3ccccc3s2)cc1 yielded a GI50 of 8.34 µM and a TGI of 18.5 µM. For Clc1nc(Cl)nc(Nc2cccc3ccccc23)n1, the GI50 was 43.6 µM and the TGI was > 100 µM. For Cc1cc2cc3c(=O)[nH]c(=O)[nH]c3nc2cc1C, the TGI was > 100 µM. For CN(C)c1ncnc2c1ncn2CCn1cnc2c(N(C)C)ncnc21, the TGI was > 100 µM. For O=C(O)c1ccc(C(=O)O)c2c(C(=O)O)ccc(C(=O)O)c12, the TGI was > 100 µM. Compound S=c1[nH]c2c(Cl)c(Cl)c(Cl)c(Cl)c2[nH]1 has a TGI of 48.8 µM. Work on Cc1cc(N(CCCNc2ccnc3cc(Cl)ccc23)Cc2ccc3c(c2)OCO3)nc(N2CCOCC2)n1 yielded a GI50 of 0.37 µM and a TGI of 1.78 µM. Compound Cc1ccc(Nc2oc(-c3ccccc3)nc2[P+](c2ccccc2)(c2ccccc2)c2ccccc2)cc1 has a GI50 of 0.606 µM and a TGI of 1.97 µM. With O=C(Nc1ccc(Cl)c(C(F)(F)F)c1)c1ccc(NC2=C(Cl)C(=O)N(Cc3ccccc3)C2=O)cc1 the GI50 was 19.1 µM and the TGI was 36.8 µM. COC(=O)c1ccc(-c2c(C#N)[n+](=O)c3cc(Cl)c(Cl)cc3n2[O-])cc1 gave a GI50 of 17.9 µM and a TGI of 37 µM. In the case of C#Cc1nc(Nc2cc(C)[nH]n2)c2ccccc2n1, the GI50 is reported as 0.213 µM and the TGI is reported as 0.563 µM. Cc1nc2cc(Nc3nc(Nc4ccc(F)cc4)nc(-c4cccs4)n3)ccc2n1Cc1ccccc1 was tested, and the GI50 was 3.85 µM and the TGI was 35.2 µM. Oc1ccc2ccccc2c1N=Nc1ccc(Br)cc1 was tested, and the TGI was > 100 µM. CC(C)=CCc1cc2c(cc1O)OC[C@H]1c3cc4c(cc3O[C@@H]21)OCO4 was tested, and the TGI was 91.9 µM. Work on CCOC(=O)c1c(-c2ccc(OC)cc2)c(C#N)c2c(C#N)c(N)nn2c1N yielded a GI50 of 0.613 µM and a TGI of 2.89 µM. COc1ccc(Cn2c(N)c(S(=O)(=O)c3ccc(Cl)cc3)c3nc(C#N)c(C#N)nc32)cc1 was tested, and the GI50 was > 50 µM and the TGI was > 50 µM.

What follows are compounds tested on NCI-H226 lung (assay: inhibition of tumour cell growth, NCI panel, 48 h).
Compound O=[N+]([O-])c1ccc(CI)cc1 has a GI50 of 5.66 µM and a TGI of 23.5 µM. In the case of COC(=O)c1cc2c(s1)-c1nccc3c1c(nc1ccccc13)C2=O, the GI50 is reported as > 100 µM and the TGI is reported as > 100 µM. In the case of Oc1ccc(Nc2c3ccccc3nc3occ(Cl)c23)cc1, the GI50 is reported as 3.12 µM and the TGI is reported as 13.5 µM.
